# ChEMBL document CHEMBL1201862, “PubChem BioAssay data set” (2004)
# The source made the active and inactive calls.
# Legend:
# Cytochrome P450 2C9 = Cytochrome P450 2C9 (Homo sapiens, UniProt P11712)
# Cytochrome P450 2C19 = Cytochrome P450 2C19 (Homo sapiens, UniProt P33261); experiment: Cytochrome panel assay with activity outcomes. Panel member name: p450-cyp2c19 Compounds with AC50 equal or less than 10 uM are considered active; type: functional; details: read-out: AC50
# Melanocortin receptor 4 = Melanocortin receptor 4 (Homo sapiens, UniProt P32245); type: functional, cell-based;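 also: Cell-based assay with luminescence read-out, confirmatory dose-response testing for agonist activity of biased ligands at MC4R; human U2OS cells with tagged receptor and beta-arrestin; potency of agonists that increase receptor coupling to beta-arrestin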
# Melanocortin receptor 4, sequence (P32245 whole entry): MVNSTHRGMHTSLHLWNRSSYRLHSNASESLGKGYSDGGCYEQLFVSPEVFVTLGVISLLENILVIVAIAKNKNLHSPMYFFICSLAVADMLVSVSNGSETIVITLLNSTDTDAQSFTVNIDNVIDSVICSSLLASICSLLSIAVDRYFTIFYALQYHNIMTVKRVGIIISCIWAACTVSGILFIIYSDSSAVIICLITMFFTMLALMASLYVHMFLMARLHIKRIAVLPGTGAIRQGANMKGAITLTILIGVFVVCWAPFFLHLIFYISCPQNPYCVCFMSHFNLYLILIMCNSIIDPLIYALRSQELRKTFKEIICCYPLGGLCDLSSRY
# [1] = microbe, parasite or virus in culture; type: functional; details: Mycobacterium tuberculosis
# [2] = target: T1, High affinity choline transporter 1 (Homo sapiens, UniProt Q9GZV3); experiment: CHT inhibitors, dose response, cell-based, 5-point CRC, membrane potential dye (AID 504840); type: functional
# T1 sequence (Q9GZV3 whole entry): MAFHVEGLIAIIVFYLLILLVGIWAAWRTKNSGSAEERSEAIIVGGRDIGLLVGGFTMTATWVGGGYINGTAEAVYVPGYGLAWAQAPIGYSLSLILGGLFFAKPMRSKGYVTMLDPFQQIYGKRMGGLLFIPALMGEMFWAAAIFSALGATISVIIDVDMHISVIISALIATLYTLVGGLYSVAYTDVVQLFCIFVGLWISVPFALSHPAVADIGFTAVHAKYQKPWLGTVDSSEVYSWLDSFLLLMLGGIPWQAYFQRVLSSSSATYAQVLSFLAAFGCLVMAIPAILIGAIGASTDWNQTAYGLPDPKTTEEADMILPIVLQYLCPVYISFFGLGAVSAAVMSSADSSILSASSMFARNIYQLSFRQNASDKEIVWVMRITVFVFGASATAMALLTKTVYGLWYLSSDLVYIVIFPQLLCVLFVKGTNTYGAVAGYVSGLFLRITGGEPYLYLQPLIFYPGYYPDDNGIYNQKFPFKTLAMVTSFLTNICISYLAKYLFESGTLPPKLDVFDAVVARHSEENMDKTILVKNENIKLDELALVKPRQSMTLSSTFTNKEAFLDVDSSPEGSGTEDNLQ
# [3] = target: T2, Rac GTPase-activating protein 1 (Homo sapiens, UniProt Q9H0H5); experiment: MgcRacGAP GTPase-activating activity inhibitors, confirmation, biochemical, ADP Hunter fluorescence, primary and confirmatory (AID 624330); type: functional
# T2 sequence (Q9H0H5 whole entry): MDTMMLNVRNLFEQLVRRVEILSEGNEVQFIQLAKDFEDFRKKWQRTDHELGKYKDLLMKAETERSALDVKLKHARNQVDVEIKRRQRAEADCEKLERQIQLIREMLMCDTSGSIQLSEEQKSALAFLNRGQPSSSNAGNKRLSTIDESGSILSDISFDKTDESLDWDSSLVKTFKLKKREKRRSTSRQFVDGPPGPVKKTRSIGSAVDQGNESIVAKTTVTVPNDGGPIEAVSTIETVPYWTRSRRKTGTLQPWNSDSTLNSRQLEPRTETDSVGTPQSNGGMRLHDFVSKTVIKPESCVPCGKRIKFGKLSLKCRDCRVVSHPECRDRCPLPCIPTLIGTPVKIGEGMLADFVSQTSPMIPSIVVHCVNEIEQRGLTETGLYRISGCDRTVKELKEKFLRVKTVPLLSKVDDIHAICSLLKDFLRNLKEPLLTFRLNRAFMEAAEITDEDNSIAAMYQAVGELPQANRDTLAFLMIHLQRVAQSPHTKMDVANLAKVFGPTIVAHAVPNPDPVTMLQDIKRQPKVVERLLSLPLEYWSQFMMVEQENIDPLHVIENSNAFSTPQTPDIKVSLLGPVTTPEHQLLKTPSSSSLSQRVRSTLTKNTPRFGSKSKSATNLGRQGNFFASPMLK
# Genome polyprotein = Genome polyprotein (dengue virus type 2, UniProt P29990); experiment: Dengue-2 NS5 methyltransferase inhibitors, primary screen, biochemical, confirmation dose response (AID 588689); type: functional
# Genome polyprotein, sequence (P29990 2492-3391 limits assumed): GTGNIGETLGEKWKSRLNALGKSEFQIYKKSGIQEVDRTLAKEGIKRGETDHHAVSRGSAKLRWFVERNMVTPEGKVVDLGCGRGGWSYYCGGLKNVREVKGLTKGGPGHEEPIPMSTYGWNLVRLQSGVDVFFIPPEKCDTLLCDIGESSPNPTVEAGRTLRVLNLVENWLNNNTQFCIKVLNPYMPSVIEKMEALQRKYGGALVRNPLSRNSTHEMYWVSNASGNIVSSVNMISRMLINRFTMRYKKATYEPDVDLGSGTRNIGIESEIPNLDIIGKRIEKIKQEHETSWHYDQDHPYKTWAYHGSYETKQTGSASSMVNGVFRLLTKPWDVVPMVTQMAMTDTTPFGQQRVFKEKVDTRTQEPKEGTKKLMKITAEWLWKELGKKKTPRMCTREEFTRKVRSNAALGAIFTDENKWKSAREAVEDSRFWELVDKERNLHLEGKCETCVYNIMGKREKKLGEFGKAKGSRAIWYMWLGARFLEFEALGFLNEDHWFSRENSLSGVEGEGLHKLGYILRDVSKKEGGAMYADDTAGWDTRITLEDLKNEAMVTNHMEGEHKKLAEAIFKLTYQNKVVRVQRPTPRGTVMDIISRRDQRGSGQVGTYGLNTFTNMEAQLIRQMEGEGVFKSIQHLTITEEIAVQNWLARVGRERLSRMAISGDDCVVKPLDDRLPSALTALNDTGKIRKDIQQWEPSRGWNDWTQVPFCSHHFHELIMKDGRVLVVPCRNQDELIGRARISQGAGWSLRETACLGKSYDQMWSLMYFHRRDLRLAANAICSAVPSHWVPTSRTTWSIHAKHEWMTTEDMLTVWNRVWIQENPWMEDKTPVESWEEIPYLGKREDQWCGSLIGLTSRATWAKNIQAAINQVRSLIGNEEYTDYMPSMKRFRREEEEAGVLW
# [4] = target: T3, Short transient receptor potential channel 4 (Mus musculus, UniProt Q9QUQ5); experiment: mouse TRPC4 channel activators, dose response, cell-based, HEK293 TRPC4/mu-opioid, Fluo-4 calcium (AID 434937); type: functional
# T3 sequence (Q9QUQ5 whole entry): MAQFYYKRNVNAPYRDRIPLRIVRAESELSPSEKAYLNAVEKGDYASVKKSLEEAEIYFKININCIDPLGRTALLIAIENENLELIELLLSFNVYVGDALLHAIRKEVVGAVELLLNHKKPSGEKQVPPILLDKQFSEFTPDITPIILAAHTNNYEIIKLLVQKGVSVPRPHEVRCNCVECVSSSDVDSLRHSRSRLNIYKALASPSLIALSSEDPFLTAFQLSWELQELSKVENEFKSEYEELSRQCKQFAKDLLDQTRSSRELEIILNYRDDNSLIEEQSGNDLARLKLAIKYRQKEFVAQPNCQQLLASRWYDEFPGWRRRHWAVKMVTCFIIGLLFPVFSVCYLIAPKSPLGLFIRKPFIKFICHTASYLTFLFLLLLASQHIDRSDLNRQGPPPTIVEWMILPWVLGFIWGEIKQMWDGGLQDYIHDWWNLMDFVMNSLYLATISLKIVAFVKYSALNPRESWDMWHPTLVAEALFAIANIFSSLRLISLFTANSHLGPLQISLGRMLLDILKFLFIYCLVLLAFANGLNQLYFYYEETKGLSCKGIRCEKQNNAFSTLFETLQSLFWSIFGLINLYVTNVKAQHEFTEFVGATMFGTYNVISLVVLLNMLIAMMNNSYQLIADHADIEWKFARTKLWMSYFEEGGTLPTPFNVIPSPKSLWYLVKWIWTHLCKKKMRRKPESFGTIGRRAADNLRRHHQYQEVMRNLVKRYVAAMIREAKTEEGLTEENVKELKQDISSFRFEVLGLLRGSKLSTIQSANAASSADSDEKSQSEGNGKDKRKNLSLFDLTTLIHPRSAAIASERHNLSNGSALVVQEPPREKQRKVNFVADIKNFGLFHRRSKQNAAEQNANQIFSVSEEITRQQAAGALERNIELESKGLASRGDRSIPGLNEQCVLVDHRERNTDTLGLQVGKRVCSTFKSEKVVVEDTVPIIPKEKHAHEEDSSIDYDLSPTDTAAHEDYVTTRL
# cells [5] = type: functional
# [6] = target: T4, Ubiquitin-conjugating enzyme E2 N (Homo sapiens, UniProt P61088); type: functional;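 also: Dose-response confirmation in a TR-FRET assay detecting UBC13-driven polyubiquitin chain formation, inhibition measured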
# T4 sequence (P61088 whole entry): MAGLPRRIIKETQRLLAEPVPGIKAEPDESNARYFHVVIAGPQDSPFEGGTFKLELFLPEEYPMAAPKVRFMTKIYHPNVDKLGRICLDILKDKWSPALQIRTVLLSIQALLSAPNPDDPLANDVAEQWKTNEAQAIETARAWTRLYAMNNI
# [7] = target: T5, Calpain-2 catalytic subunit (Sus scrofa, UniProt P43367); experiment: pig calpain II inhibitor potency, dose response, biochemical, fluorogenic peptide substrate (AID 1420); type: functional
# T5 sequence (P43367 whole entry): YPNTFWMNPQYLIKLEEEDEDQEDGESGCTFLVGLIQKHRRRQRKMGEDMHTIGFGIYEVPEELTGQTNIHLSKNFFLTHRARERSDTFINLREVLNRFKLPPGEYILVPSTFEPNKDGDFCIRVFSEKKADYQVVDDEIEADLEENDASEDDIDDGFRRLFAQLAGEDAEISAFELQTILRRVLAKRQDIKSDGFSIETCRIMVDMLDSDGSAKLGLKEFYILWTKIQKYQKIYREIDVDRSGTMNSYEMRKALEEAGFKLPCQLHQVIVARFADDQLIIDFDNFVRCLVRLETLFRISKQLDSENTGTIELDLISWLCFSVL
# Cytochrome P450 3A4 = Cytochrome P450 3A4 (Homo sapiens, UniProt P08684);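 also: CYP3A4 tested as one member of a cytochrome P450 panel screen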
# Cytochrome P450 3A4, sequence (P08684 whole entry): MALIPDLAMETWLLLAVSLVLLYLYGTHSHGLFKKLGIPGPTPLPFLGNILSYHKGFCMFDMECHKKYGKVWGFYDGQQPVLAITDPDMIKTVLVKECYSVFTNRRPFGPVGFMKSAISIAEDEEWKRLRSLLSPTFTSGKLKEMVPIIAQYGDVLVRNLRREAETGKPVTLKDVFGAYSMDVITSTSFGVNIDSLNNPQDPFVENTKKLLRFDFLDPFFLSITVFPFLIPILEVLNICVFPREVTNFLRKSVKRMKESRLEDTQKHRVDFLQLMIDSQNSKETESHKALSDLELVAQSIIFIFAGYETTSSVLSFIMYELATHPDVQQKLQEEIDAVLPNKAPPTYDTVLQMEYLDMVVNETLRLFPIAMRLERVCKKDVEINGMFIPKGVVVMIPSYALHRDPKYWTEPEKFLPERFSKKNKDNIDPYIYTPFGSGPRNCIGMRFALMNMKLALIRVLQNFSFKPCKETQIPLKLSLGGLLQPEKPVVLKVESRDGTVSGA
# cells [8] = type: functional, cell-based
# cells [9] = type: functional, cell-based; remark: listed apart in the source
# HEK293 = experiment: inhibitors of LMP1-driven NF-kB reporter, dose response, cell-based, HEK293, luciferase, cherry-pick (AID 588343); type: functional; details: Homo sapiens
# [10] = LGR2 antagonists, dose response, cell-based, HEK293, CRE-luciferase reporter, cherry pick, set 2 (AID 743343); type: functional;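 also: transfected cells were stimulated with diluted bursicon conditioned medium after compound addition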
# [11] = MC4R antagonists, dose response, counter-screen for LGR2 antagonist project, cell-based, plate reader, cherry pick (AID 743444); type: functional;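 also: transfected HEK 293 cells stimulated with alpha-MSH peptide; potency of inhibitors of the alpha-MSH evoked signal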
# [12] = tested on: Streptococcus sp. 'group A'; experiment: growth inhibition of control SK(-) GAS strain, dose response, counter-screen for streptokinase expression inhibitor project, luminescence, kanamycin, BacTiterGlo, confirmation (AID 1900); type: functional, organism-based
# Streptococcus = experiment: Group A Streptococcus viability loss, dose response, counter-screen for streptokinase expression inhibitor project, luminescence, BacTiterGlo (AID 1915); type: functional, organism-based;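 also: potency for reduction of bacterial viability or growth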
# [13] = target: T3, Short transient receptor potential channel 4; experiment: mouse TRPC4 channel inhibitors, dose response, cell-based, HEK293 TRPC4/mu-opioid, Fluo-4 calcium (AID 434942); type: functional;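 also: potency of inhibitors blocking the TRPC4 calcium response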
# Cytochrome P450 2C9, sequence (P11712 whole entry): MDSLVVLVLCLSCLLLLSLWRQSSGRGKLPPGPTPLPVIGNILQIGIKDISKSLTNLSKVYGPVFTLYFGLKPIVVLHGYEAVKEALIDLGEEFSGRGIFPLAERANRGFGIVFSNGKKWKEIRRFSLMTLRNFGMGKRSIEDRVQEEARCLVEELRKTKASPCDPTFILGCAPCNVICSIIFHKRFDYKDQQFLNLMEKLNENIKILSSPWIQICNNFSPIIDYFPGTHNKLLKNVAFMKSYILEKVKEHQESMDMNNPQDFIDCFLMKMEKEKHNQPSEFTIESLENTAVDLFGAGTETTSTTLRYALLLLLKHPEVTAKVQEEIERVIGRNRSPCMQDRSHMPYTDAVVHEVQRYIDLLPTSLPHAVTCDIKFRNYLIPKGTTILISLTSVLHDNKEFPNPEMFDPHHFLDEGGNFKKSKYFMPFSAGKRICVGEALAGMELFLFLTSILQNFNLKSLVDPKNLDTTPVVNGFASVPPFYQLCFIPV
# Cytochrome P450 2C19, sequence (P33261 whole entry): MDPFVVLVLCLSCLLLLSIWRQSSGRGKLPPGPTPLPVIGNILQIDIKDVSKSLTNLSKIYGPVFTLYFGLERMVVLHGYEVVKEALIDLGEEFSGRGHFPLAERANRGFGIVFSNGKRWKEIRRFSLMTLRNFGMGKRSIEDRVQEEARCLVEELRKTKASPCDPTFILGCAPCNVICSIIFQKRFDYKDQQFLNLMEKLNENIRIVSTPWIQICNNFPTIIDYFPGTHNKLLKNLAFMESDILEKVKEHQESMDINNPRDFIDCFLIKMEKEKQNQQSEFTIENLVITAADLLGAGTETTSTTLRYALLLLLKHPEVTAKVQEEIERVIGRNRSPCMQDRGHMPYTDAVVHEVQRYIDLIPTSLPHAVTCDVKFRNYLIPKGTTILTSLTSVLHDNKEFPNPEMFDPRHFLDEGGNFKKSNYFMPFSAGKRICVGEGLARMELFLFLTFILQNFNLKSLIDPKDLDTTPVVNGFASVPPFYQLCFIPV
smiles,measurement,setting,value
O=C(Nc1cc(-c2nc3ccccc3s2)ccc1Cl)c1ccc2c(c1)OCO2,AC50,Cytochrome P450 2C9,1.78 µM (inconclusive)
same,AC50,Cytochrome P450 2C19,3.55 µM (inconclusive)
same,EC50,Melanocortin receptor 4,> 89.2 µM (inactive)
O=C(C1CCCN(c2ncnc3c2nc2n3CCCCC2)C1)N1CCN(c2ccc(Cl)cc2)CC1 (configuration not stated),CC50,[1],> 40 µM (active)
same,IC50,[2],4.57 µM (active)
COc1cc(/C=C2\C(=O)N(c3cccc(C(=O)O)c3)N=C2C)ccc1OCc1ccccc1,IC50,[3],43.9 µM (active)
same,IC50,Genome polyprotein,7.99 µM (active)
CCCN(CCC)CCN=C(S)Nc1ccc2nc3n(c(=O)c2c1)CCCCC3,EC50,[4],0.299 µM (active)
CCN1CCN(c2ccc(S(=O)(=O)N3CCOCC3)cc2NC(=O)/C=C/c2ccc(OC)cc2OC)CC1,EC50,[4],2.99 µM (active)
COc1ccc(NC(=O)COC(=O)c2c(NC(C)=O)sc(C)c2C)cc1,EC50,Melanocortin receptor 4,> 89.3 µM (inactive)
CC(=O)Nc1cc(-c2ccc(C(=O)N3CCOCC3)cc2)cn2c(-c3ccccc3)cnc12,EC50,Melanocortin receptor 4,> 89.2 µM (inactive)
O=C1Nc2cc(C(=O)NCCCN3CCOCC3)ccc2S/C1=C/c1cccc(Cl)c1,IC50,cells [5],27.8 µM (active)
same,IC50,[6],> 20 µM (inactive)
same,CC50,[1],> 40 µM (active)
COc1ccc(-c2oc3ccc(-c4ccc5c(c4)OCO5)cc3c2C#CC2(O)CCCCC2)cc1,EC50,Melanocortin receptor 4,> 89.2 µM (inactive)
CCOc1ccc(N2C(=O)C(Cl)=C(N3CCOCC3)C2=O)cc1,IC50,Genome polyprotein,29.4 µM (active)
CCCCNS(=O)(=O)c1ccc2[nH]c(SCC(=O)Nc3ccccc3Cl)nc2c1,IC50,[7],18.5 µM (not active)
CC1CCCCC1NC(=O)c1ccc(S(=O)(=O)N2CCCC2)cc1 (configuration not stated),IC50,[2],13.2 µM (active)
Nc1c(-c2cccs2)cnn1-c1nc(-c2ccc(Cl)cc2Cl)cs1,AC50,Cytochrome P450 2C9,20 µM (inconclusive)
same,AC50,Cytochrome P450 3A4,12.6 µM (inconclusive)
same,EC50,Melanocortin receptor 4,> 89.2 µM (inactive)
Cc1onc(-c2ccccc2)c1C(=O)Nc1nnc(COc2ccc(Cl)cc2)s1,IC50,cells [5],8.45 µM (active)
COc1ccc(OCC(=O)N/N=C2\CCc3ccccc32)cc1,IC50,cells [5],42.9 µM (active)
COc1ccccc1NS(=O)(=O)c1ccc(N/N=C/c2ccccc2OCC(=O)O)c([N+](=O)[O-])c1,IC50,Genome polyprotein,56.5 µM (active)
COc1ccc(C(=O)C2CCCN(C3Cc4ccccc4C3)C2)cc1OC (configuration not stated),EC50,[4],1.68 µM (active)
O=C(Cn1ncc2c3ccccc3n(Cc3ccccc3F)c2c1=O)NCCN1CCOCC1,EC50,cells [8],> 350 µM (not active)
same,EC50,cells [9],> 350 µM (not active)
same,IC50,[2],12 µM (active)
COc1cc(C(=S)N2CCOCC2)cc(OC)c1OC(=O)c1ccc(F)cc1,AC50,HEK293,> 350 µM (inactive)
COc1ccccc1C(=O)Nc1ccc(C(=O)c2ccccc2)cc1,IC50,[7],35.2 µM (not active)
Cn1nc(C(=O)NNc2c(F)c(F)cc(F)c2F)c2ccccc2c1=O,IC50,[7],5.53 µM (not active)
C=CCn1c(CCNC(=O)c2ccco2)nc2ccccc21,EC50,[4],1.68 µM (active)
COc1ccc(F)cc1CN1CCN(C(=O)CCC(=O)Nc2nnc(C(C)C)s2)CC1,EC50,[4],0.841 µM (active)
CC1Cc2ccccc2N1C(=S)NC(=O)c1ccco1 (configuration not stated),IC50,[7],0.535 µM (not active)
COc1ccc(S(=O)(=O)N2CCCCN3[C@H](CO)[C@H](c4ccc(-c5cccnc5)cc4)[C@@H]3C2)cc1,AC50,[10],20 µM (active)
same,AC50,[11],25.6 µM (active)
Cc1ccc(N2C(=O)CC(c3c[nH]c4ccccc34)C2=O)cc1 (configuration not stated),IC50,[7],12.1 µM (not active)
CC(C)C(=O)Nc1ccc(C(=O)N/N=C/c2cc(Br)cc(Br)c2O)cc1,EC50,[12],1.65 µM (active)
same,EC50,Streptococcus,2.04 µM (active)
same,AC50,HEK293,16.7 µM (active)
c1csc(-c2nc(NCC3CCCO3)c3ccccc3n2)c1 (configuration not stated),EC50,[13],4.73 µM (active)
Cc1ccc(SC[C@H](c2ccccc2)N2CCN(CCc3ccccc3)CCC2=O)cc1,IC50,[7],7.19 µM (not active)
